“And” between values parts separate entries of the source, which are not always exact repeats. Identical values can stand only once.
Assays:
[1] = test system: PfCRT variant E207P; experiment: CQ uptake assay, oocytes expressing E207P; format: cell-based, Plasmodium falciparum
Method: (§1) Site-directed mutagenesis of PfCRT^Dd2 was performed as described using the megaprimer method with overlap extension[21],[54]. The primer pairs used are listed in Supplementary Table 6. Please note that a codon-optimized and oocyte-adapted version of PfCRT^Dd2 was used[22] (Supplementary Fig. 16). The resulting DNA fragment was cloned into the SP64T expression vector and verified by sequencing.
(§2) Oocytes were obtained as described previously. Briefly, adult (>2 years old) female X. laevis frogs (NASCO) were anesthetized in a cooled solution of ethyl 3-amino benzoate methanesulfonate (0.1%, w/v), followed by a surgical removal of parts of the ovary. The ovary lobes were carefully dissected and small pieces of oocytes were incubated in Ca^2+-free ND96 buffer (96 mM NaCl, 2 mM KCl, 1 mM MgCl2 buffered with 5 mM HEPES/NaOH, pH 7.5) supplemented with collagenase D (0.1%, w/v; Roche), BSA (0.5%, w/v), and 9 mm Na2HPO4 at 18 °C for 14-16 h while gentle shaking. After incubation, the oocytes were carefully washed several times with ND96 buffer (96 mM NaCl, 2 mM KCl, 1.8 mM CaCl2, 1 mM MgCl2 buffered with 5 mM HEPES/NaOH, pH 7.5) supplemented with 100 mg l^−1 gentamycin). Defolliculated and healthy-looking stage V-VI oocytes were manually selected for RNA microinjection. The RNA was generated as following: The codon-optimized sequences of PfCRT variants were cloned into the pSP64T expression vector. After vector linearization using the restriction endonucleases BamHI or SalI (New England Biolabs), transcription was performed using the in vitro SP6 mMessage mMachine Kit (Ambion)[34]. The obtained RNA was kept at −80 °C and diluted with nuclease-free water to a concentration of 0.6 μg μl^−1. Precision-bore glass capillary tubes (3.5-inch glass capillaries; Drummond Scientific Co.) were pulled on a vertical puller (P-87 Flaming/Brown micropipette puller, Sutter Instrument Co.), graduated, and placed on a microinjector (Nanoject II Auto-Nanoliter Injector, Drummond Scientific Co.). 50 nl of nuclease-free water alone (control oocytes) or 50 nl of 0.6 μg μl^−1 RNA were injected under stereomicroscopic control. Injected oocytes were incubated for 46–72 h at 18 °C with twice-daily buffer changes before usage in experiments.
(§3) Drug uptake assays were performed as described previously[21],[22],[24],[34]. […] The direction of radio-labeled drug transport is here from the mostly acidic extracellular solution (pH 4.5 or 6.0, as indicated) into the oocyte cytosol (pH ∼ 7.2), which corresponds to the efflux of drug from the acidic digestive vacuole (pH 5.2) into the parasite cytoplasm (pH 7.2). The topology of PfCRT in the oolemma is such that both the N- and C-terminus face the extracellular milieu[3],[22]. In the parasite, the N- and C-terminus face the lumen of the digestive vacuole. CQ uptake kinetics were performed by incubating oocytes in ND96 buffer adjusted to a pH of 4.5, 5.0, 5.5, or 6.0 and supplemented with 50 nM [^3H]CQ and one of 7 different CQ concentrations (10 µM, 50 µM, 100 µM, 200 µM, 300 µM, 400 µM, 500 µM CQ). The reaction was stopped at the 60 min time point, which is in the linear uptake range[22],[34] (Supplementary Fig. 17). For determination of the amount of drug uptake for each oocyte, the reaction medium was removed and the oocytes were washed three times with 2 ml of ice-cold ND96 buffer. Each oocyte was individually transferred to a scintillation vial containing 5% sodium dodecyl sulfate (200 μl) for lysis. The radioactivity of each sample was measured using a liquid scintillation analyzer Tri-Carb 4910 TR (PerkinElmer). Oocytes that were injected with water instead of RNA were analyzed in parallel, representing the uptake of a drug by diffusion and/or endogenous permeation pathways. The resulting value represents the “background“ level of drug accumulation in oocytes (in-depth discussion in[22]). […]

[2] = molecular target: T1, PfCRT variant D377A (Plasmodium falciparum, UniProt Q9N623, A220S/D377A/I356T/K76T/M74I/N326S/N75E/Q271E/R371I); experiment: CQ uptake assay, oocytes expressing D377A; format: cell-based
T1 sequence (Q9N623 1-424 M74I/N75E/K76T/A220S/Q271E/N326S/I356T/R371I/D377A): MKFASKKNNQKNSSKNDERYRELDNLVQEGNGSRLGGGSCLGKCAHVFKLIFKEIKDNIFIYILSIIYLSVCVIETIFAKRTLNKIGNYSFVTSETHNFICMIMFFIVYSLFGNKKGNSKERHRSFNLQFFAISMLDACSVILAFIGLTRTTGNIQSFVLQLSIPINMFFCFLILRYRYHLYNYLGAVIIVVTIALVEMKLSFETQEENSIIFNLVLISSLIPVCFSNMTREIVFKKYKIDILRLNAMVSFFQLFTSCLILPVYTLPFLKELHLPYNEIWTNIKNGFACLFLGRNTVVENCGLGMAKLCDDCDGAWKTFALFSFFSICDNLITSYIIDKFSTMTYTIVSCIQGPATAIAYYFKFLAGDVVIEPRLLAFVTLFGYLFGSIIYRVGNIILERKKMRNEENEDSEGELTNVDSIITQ
Method: as §1, §2, §3

[3] = test system: PfCRT variant Y177A; experiment: CQ uptake assay, oocytes expressing Y177A; format: cell-based, Plasmodium falciparum
Method: as §1, §2
Drug uptake assays were performed as described previously[21],[22],[24],[34]. […] The direction of radio-labeled drug transport is here from the mostly acidic extracellular solution (pH 4.5 or 6.0, as indicated) into the oocyte cytosol (pH ∼ 7.2), which corresponds to the efflux of drug from the acidic digestive vacuole (pH 5.2) into the parasite cytoplasm (pH 7.2). The topology of PfCRT in the oolemma is such that both the N- and C-terminus face the extracellular milieu[3],[22]. In the parasite, the N- and C-terminus face the lumen of the digestive vacuole. CQ uptake kinetics were performed by incubating oocytes in ND96 buffer adjusted to a pH of 4.5, 5.0, 5.5, or 6.0 and supplemented with 50 nM [^3H]CQ and one of 7 different CQ concentrations (10 µM, 50 µM, 100 µM, 200 µM, 300 µM, 400 µM, 500 µM CQ). The reaction was stopped at the 60 min time point, which is in the linear uptake range[22],[34] (Supplementary Fig. 17). […] The radioactivity of each sample was measured using a liquid scintillation analyzer Tri-Carb 4910 TR (PerkinElmer). Oocytes that were injected with water instead of RNA were analyzed in parallel, representing the uptake of a drug by diffusion and/or endogenous permeation pathways. […]

[4] = pKa values of the drugs (literature); format: physicochemical; conditions: between pH 4.5 and 6.0
[5] = E207P, 50 µM CQ, 1 h, mean ± SEM
[6] = D377A, 50 µM CQ, 1 h, mean ± SEM
[7] = pH 4.5, single replicates, Fig 1d left
[8] = pH 6.0, single replicates, Fig 1d left
[9] = Y177A, 50 µM CQ, 1 h, mean ± SEM

With CCN(CC)CCCC(C)Nc1ccnc2cc(Cl)ccc12 (stereo not drawn) [CQ, chloroquine] the “Activity at pH 4.5” value [1, 5] was 2.31 ± 0.3 pmol h-1 oocyte-1, the “Activity at pH 6.0” value [1, 5] was 2.45 ± 0.21 pmol h-1 oocyte-1 and the R-value ([1]; E207P, CQ transport at pH 4.5 / pH 6.0) was 0.93 ± 0.05. For the same molecule, the “E207P transport activity pH 4.5” value ([1]; pH 4.5, individual replicates, Fig 6b) was 2.94 pmol oocyte-1 h-1 and 1.66 pmol oocyte-1 h-1 and 2.34 pmol oocyte-1 h-1, the “E207P transport activity pH 6.0” value ([1]; pH 6.0, individual replicates, Fig 6b) was 2.94 pmol oocyte-1 h-1 and 2.08 pmol oocyte-1 h-1 and 2.34 pmol oocyte-1 h-1 and the E207PR-value ([1]; ratio of activity pH 4.5 / pH 6.0) was 1.00 and 0.80. For the same molecule, the “Activity at pH 4.5” value [2, 6] was 0.62 ± 0.01 pmol h-1 oocyte-1, the “Activity at pH 6.0” value [2, 6] was 1.44 ± 0.13 pmol h-1 oocyte-1 and the R-value ([2]; D377A, CQ transport at pH 4.5 / pH 6.0) was 0.44 ± 0.04. For the same molecule, the “D377A transport activity pH 4.5” value [2, 7] was 0.64 pmol oocyte-1 h-1 and 0.61 pmol oocyte-1 h-1, the “D377A R-value” ([2]; pH 4.5 vs pH 6.0, Fig 1d left) was 0.44 and 0.36 and 0.52 and the “D377A transport activity pH 6.0” value [2, 8] was 1.44 pmol oocyte-1 h-1 and 1.71 pmol oocyte-1 h-1 and 1.17 pmol oocyte-1 h-1. For the same molecule, the “Activity at pH 4.5” value [3, 9] was 1.25 ± 0.21 pmol h-1 oocyte-1, the “Activity at pH 6.0” value [3, 9] was 2.94 ± 0.26 pmol h-1 oocyte-1 and the R-value ([3]; Y177A, CQ transport at pH 4.5 / pH 6.0) was 0.44 ± 0.11. For the same molecule, the “Y177A transport activity pH 4.5” value [3, 7] was 0.79 pmol oocyte-1 h-1 and 1.73 pmol oocyte-1 h-1 and 1.60 pmol oocyte-1 h-1 and 0.87 pmol oocyte-1 h-1, the “Y177A transport activity pH 6.0” value [3, 8] was 2.11 pmol oocyte-1 h-1 and 3.29 pmol oocyte-1 h-1 and 2.90 pmol oocyte-1 h-1 and 3.47 pmol oocyte-1 h-1 and the molecules being di-protonated [4] was > 99%.

Source: article PMC10349806 (Nature Communications, 2023)
